# According to patent publication US20230115176A1 (Ra Pharmaceuticals, Inc., priority 2019, published 2023):
# pIC50, pKd: −log10 of the molar value. Read-outs that look alike come from different tables or passages of the source.
# Tests used:
# [1] = target: purified human C5 (Homo sapiens, UniProt P01031); test: Red blood cell (RBC) hemolysis assay, optical, absorbance 412 nm (Example 10, Table 19); type: cell-based; details: antibody-sensitized sheep erythrocytes, […] human C5 depleted sera, 0.5 nM purified human C5, absorbance 412 nm; read-out: RBC Hemolysis IC50
# Chain of purified human C5 (P01031 19-1676): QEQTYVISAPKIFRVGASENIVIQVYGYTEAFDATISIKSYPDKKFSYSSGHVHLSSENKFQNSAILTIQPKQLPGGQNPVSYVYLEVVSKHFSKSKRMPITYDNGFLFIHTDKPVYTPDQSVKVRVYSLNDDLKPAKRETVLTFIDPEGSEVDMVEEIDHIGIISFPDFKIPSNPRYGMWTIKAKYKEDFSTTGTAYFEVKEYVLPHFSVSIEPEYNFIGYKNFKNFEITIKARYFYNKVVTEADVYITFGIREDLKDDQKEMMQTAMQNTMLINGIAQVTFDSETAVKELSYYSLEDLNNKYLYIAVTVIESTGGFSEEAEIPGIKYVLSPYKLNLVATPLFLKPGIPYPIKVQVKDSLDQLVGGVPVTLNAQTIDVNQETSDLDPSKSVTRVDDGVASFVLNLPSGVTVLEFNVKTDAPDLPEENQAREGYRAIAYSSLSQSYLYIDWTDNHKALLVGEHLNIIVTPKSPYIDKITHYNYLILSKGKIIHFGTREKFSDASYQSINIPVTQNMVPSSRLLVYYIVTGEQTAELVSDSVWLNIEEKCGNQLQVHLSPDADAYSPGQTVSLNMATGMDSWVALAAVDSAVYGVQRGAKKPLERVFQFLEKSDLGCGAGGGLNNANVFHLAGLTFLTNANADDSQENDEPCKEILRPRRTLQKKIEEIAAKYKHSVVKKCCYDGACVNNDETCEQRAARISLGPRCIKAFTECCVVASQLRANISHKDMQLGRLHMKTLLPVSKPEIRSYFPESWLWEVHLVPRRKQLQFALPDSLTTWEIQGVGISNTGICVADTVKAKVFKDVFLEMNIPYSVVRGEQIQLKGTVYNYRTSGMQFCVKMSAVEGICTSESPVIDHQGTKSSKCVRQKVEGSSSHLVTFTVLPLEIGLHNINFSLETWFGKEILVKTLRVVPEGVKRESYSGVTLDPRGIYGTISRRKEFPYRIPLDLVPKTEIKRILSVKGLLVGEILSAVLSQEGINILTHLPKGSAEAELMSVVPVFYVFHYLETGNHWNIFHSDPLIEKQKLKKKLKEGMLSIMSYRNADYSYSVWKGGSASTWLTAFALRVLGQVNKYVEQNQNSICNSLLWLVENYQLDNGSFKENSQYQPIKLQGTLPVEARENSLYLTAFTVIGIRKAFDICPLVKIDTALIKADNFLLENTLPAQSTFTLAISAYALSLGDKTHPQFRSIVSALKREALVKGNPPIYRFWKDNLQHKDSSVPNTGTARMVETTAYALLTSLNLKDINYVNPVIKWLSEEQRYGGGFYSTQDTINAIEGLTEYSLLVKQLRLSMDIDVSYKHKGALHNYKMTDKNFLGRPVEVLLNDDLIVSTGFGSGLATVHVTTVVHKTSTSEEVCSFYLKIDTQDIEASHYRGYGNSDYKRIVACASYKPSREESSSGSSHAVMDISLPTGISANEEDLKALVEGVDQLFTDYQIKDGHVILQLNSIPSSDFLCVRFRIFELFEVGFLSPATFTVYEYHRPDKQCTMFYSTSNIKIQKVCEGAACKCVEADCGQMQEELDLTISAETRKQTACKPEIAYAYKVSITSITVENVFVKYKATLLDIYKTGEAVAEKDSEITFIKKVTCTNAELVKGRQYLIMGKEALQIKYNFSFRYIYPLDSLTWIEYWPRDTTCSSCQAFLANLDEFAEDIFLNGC
# [2] = target: T1, Human C5 (Homo sapiens, UniProt P01031); test: Surface plasmon resonance (SPR), immobilized human C5 (Example 9, Table 18); type: binding
# T1 construct: purchased Complement Technology
# T1 sequence (P01031 19-1676): as above
# From the text: Morrison and Boyd in “Organic Chemistry”, 6th edition, Prentice Hall (1992)] and validated for proper structure by mass spectrometry.
# [3] = immobilized human C5, equilibrium dissociation constant, read-out: SPR C5 EQ KD
SMILES,pIC50 [1],"pKd [2, 3]","pKd ([2]; SPR, human C5 immobilized, read-out: equilibrium dissociation constant for interaction with C5)"
COc1ccc(NC(=O)NCc2ccccc2OCCC2CCOC2)cc1OCCCC(C)C (stereo not shown) [Compound C5INH-0338],5.36,6.71,
COc1ccc(NC(=O)NCc2cc(F)cc3[nH]ccc23)cc1OCCCC(C)C [Compound C5INH-0517],6.43,7.97,> 7.70
COc1ccc(NC(=O)NCc2ccc(Cn3ccnc3)cc2)cc1OCCCC(C)C [Compound C5INH-0460],6.14,6.24,
COc1ccc(NC(=O)NCc2ccc(O)cc2O)cc1OCCCC(C)C [Compound C5INH-0311],7.57,7.70,
COc1ccc(NC(=O)NCc2cccc3c2ccn3CCN2CCOCC2)cc1OCCCC(C)C [Compound C5INH-0437],7.09,7.43,
COc1ccc(NC(=O)NCc2ncccc2OC)cc1OCCCC(C)C [Compound C5INH-0417],5.95,6.16,
COc1ccc(NC(=O)NC(CO)c2cc(NC(C)=O)ccc2OC)cc1OCCCC(C)C (stereo not shown) [Compound C5INH-0489],6.75,6.44,
COc1ccc(NC(=O)NCc2ccnc(NCCN(C)C)c2OC)cc1OCCCC(C)C [Compound C5INH-0453],7.18,7.60,
COC(=O)CCn1ccc2c(CNC(=O)Nc3ccc(OC)c(OCCCC(C)C)c3)ccnc21 [Compound C5INH-0398],6.48,7.05,
COc1ccc(NC(=O)N[C@@H](CO)c2ccccc2)cc1C(F)CCCC(C)C (stereo partly shown) [Compound C5INH-0432],6.38,6.28,
COc1ccc(NC(=O)NCc2cccc3nc[nH]c23)cc1OCCCC(C)C [Compound C5INH-0317],6.50,6.72,
COc1ccc(NC(=O)NCc2c(F)cccc2OC)cc1OCCCC(C)C [Compound C5INH-0326],6.11,6.59,
COc1ccc(NC(=O)NCc2cncs2)cc1OCCCC(C)C [Compound C5INH-0329],5.40,5.49,
COc1ccc(CNC(=O)Nc2ccc(OC)c(OCCCC(C)C)c2)cn1 [Compound C5INH-0498],5.33,5.83,
COc1ccc(NC(=O)NCc2ccnc(N)c2OC)cc1OCCCC(C)C [Compound C5INH-0454],6.52,6.55,
COc1ccc(NC(=O)NC(C(=O)O)c2cccc(OC)c2O)cc1OCCCC(C)C (stereo not shown) [Compound C5INH-0501],6.33,6.48,
COc1ccc(NC(=O)NCc2cccc3c2ncn3S(=O)(=O)c2ncc[nH]2)cc1OCCCC(C)C [Compound C5INH-0500],6.25,6.48,
COc1ccc(NCCCN(C)C)cc1CNC(=O)Nc1ccc(OC)c(OCCCC(C)C)c1 [Compound C5INH-0535],5.98,6.59,
COCCOc1cc(CNC(=O)Nc2ccc(OC)c(OCCCC(C)C)c2)ccn1 [Compound C5INH-0381],5.98,6.92,
COc1ccc(NC(=O)NC(CO)c2ccccc2)cc1COCCC(C)C (stereo not shown) [Compound C5INH-0477],5.84,5.95,
COc1ccc(NC(=O)NCc2ccnc3c2ccn3CC(=O)N2CCN(C)CC2)cc1OCCCC(C)C [Compound C5INH-0526],7.50,7.57,
COc1ccc(NC(=O)N2CCc3ccc(O)cc3C2)cc1OCCCC(C)C [Compound C5INH-0385],5.89,6.72,
COc1ccc(NC(=O)NCc2ccnc3c2ccn3C(C)=O)cc1OCCCC(C)C [Compound C5INH-0436],5.77,6.29,
COc1ccc(NC(=O)NCc2ccnc3c2ccn3CCN2CCCC2)cc1OCCCC(C)C [Compound C5INH-0377],6.81,7.33,
